# Laboratory results: ChEMBL document CHEMBL5046257, “Synthesis and Evaluation of Bakuchiol Derivatives as Potent Anti-inflammatory Agents in Vitro and in Vivo” (J Nat Prod, 2022)
# Calls of active or inactive are those of the source. The rule behind the calls is not given here.
# Assays:
# [1] = Cytotoxicity against mouse RAW 264.7 cells assessed as decreased cell viability measured after 24 hrs by MTT assay; assay type: toxicity, cell-based, RAW264.7
# RAW264.7 [2] = experiment: Antiinflammatory activity in mouse RAW264.7 cells assessed as downregulation of LPS-induced ERK phosphorylation at 5 to 10 uM for 1 hrs followed by LPS stimulation for 23 hrs by Western blot analysis; assay type: functional, cell-based; details: dose 5-10 µM, time 24.0 hrs
# RAW264.7 [3] = experiment: Antiinflammatory activity against mouse RAW264.7 cells assessed as inhibition of LPS-induced COX2 expression at 10 uM for 1 hrs followed by LPS stimulation for 23 hrs by western blot analysis; assay type: functional, cell-based; details: time 24.0 hrs
# RAW264.7 [4] = experiment: Antiinflammatory activity in mouse RAW 264.7 cells assessed as inhibition of LPS-induced TNF-alpha production at 5 to 10 uM for 1 hrs followed by LPS stimulation for 23 hrs by ELISA; assay type: functional, cell-based; details: dose 5-10 µM, time 24.0 hrs
# RAW264.7 [5] = experiment: Antiinflammatory activity in mouse RAW264.7 cells assessed as inhibition of LPS-induced IKKbeta phosphorylation at 5 to 10 uM for 1 hrs followed by LPS stimulation for 23 hrs by Western blot analysis; assay type: functional, cell-based; details: dose 5-10 µM, time 24.0 hrs
# RAW264.7 [6] = experiment: Antiinflammatory activity in mouse RAW264.7 cells assessed as downregulation of LPS-induced JNK phosphorylation at 5 to 10 uM for 1 hrs followed by LPS stimulation for 23 hrs by Western blot analysis; assay type: functional, cell-based; details: dose 5-10 µM, time 24.0 hrs
# RAW264.7 [7] = experiment: Antiinflammatory activity in mouse RAW 264.7 cells assessed as inhibition of LPS-induced IL-6 production at 5 to 10 uM for 1 hrs followed by LPS stimulation for 23 hrs by ELISA; assay type: functional, cell-based; details: dose 5-10 µM, time 24.0 hrs
# Danio rerio [8] = species: Danio rerio; experiment: Antiinflammatory activity in zebrafish assessed as inhibition of LPS-induced ROS production at 2.5 to 5 uM for 24 hrs by laser confocal microscope; assay type: functional, organism-based; details: dose 2.5-5 µM
# RAW264.7 [9] = experiment: Antiinflammatory activity in mouse RAW 264.7 cells assessed as inhibition of LPS-induced IL-6 production at 20 uM for 1 hrs followed by LPS stimulation for 23 hrs by ELISA; assay type: functional, cell-based; details: time 24.0 hrs
# RAW264.7 [10] = experiment: Antiinflammatory activity in mouse RAW264.7 cells assessed as downregulation of LPS-induced MAPK phosphorylation at 5 to 10 uM for 1 hrs followed by LPS stimulation for 23 hrs by Western blot analysis; assay type: functional, cell-based; details: dose 5-10 µM, time 24.0 hrs
# RAW264.7 [11] = experiment: Antiinflammatory activity in mouse RAW264.7 cells assessed as upregulation of LPS-induced NRF2 expression at 5 to 10 uM for 1 hrs followed by LPS stimulation for 23 hrs by Western blot analysis; assay type: functional, cell-based; details: dose 5-10 µM, time 24.0 hrs
# RAW264.7 [12] = experiment: Antiinflammatory activity in mouse RAW264.7 cells assessed as inhibition of LPS-induced NFkB p65 activation at 5 to 10 uM for 1 hrs followed by LPS stimulation for 23 hrs by Western blot analysis; assay type: functional, cell-based; details: dose 5-10 µM, time 24.0 hrs
# RAW264.7 [13] = experiment: Antiinflammatory activity in mouse RAW264.7 cells assessed as inhibition of LPS-induced ROS production at 5 to 10 uM for 1 hrs followed by LPS stimulation for 23 hrs by DCFH-DA staining based fluorescence assay; assay type: functional, cell-based; details: dose 5-10 µM, time 24.0 hrs
# RAW264.7 [14] = experiment: Antiinflammatory activity against mouse RAW264.7 cells assessed as inhibition of LPS-induced COX2 expression at 5 to 10 uM for 1 hrs followed by LPS stimulation for 23 hrs by western blot analysis; assay type: functional, cell-based; details: dose 5-10 µM, time 24.0 hrs
# RAW264.7 [15] = experiment: Antiinflammatory activity against mouse RAW264.7 cells assessed as inhibition of LPS-induced iNOS expression at 5 to 10 uM for 1 hrs followed by LPS stimulation for 23 hrs by western blot analysis; assay type: functional, cell-based; details: dose 5-10 µM, time 24.0 hrs
# RAW264.7 [16] = experiment: Antiinflammatory activity in mouse RAW264.7 cells assessed as upregulation of LPS-induced HO-1 expression at 5 to 10 uM for 1 hrs followed by LPS stimulation for 23 hrs by Western blot analysis; assay type: functional, cell-based; details: dose 5-10 µM, time 24.0 hrs
# RAW264.7 [17] = experiment: Antiinflammatory activity in mouse RAW 264.7 cells assessed as inhibition of LPS-induced TNF-alpha production at 20 uM for 1 hrs followed by LPS stimulation for 23 hrs by ELISA; assay type: functional, cell-based; details: time 24.0 hrs
# RAW264.7 [18] = experiment: Antiinflammatory activity in mouse RAW 264.7 cells assessed as inhibition of LPS-induced NO production at 20 uM for 1 hrs pretreatment followed by LPS stimulation for 23 hrs by Griess reagent assay; assay type: functional, cell-based; details: time 24.0 hrs
# RAW264.7 [19] = experiment: Antiinflammatory activity against mouse RAW264.7 cells assessed as inhibition of LPS-induced iNOS expression at 10 uM for 1 hrs followed by LPS stimulation for 23 hrs by western blot analysis; assay type: functional, cell-based; details: time 24.0 hrs
# Danio rerio [20] = species: Danio rerio; experiment: Antiinflammatory activity in zebrafish assessed as inhibition of LPS-induced NO production at 2.5 to 5 uM for 24 hrs by laser confocal microscope; assay type: functional, organism-based; details: dose 2.5-5 µM
Compound,IC50 at 24 h [1] [µM],further results
C=C[C@@](C)(/C=C/c1ccc(OCC(=O)Nc2ccc(Cl)cc2)cc1)CCC=C(C)C,50.7,–
C=C[C@@](C)(/C=C/c1ccc(O)cc1)CCC=C(C)C [BAKUCHIOL],97.2,–
C=C[C@@](C)(/C=C/c1ccc(OCc2cn(-c3ccc(F)cc3)nn2)cc1)CCC=C(C)C,233,–
C=C[C@@](C)(/C=C/c1ccc(OC(=O)c2cn(-c3ccccc3)nn2)cc1)CCC=C(C)C,69.9,–
C=C[C@@](C)(/C=C/c1ccc(OCc2cn(Cc3ccc(F)cc3)nn2)cc1)CCC=C(C)C,157,–
C=C[C@@](C)(/C=C/c1ccc(OCc2cn(-c3ccc(Cl)cc3)nn2)cc1)CCC=C(C)C,47.6,–
C=C[C@@](C)(/C=C/c1ccc(OC(=O)c2cn(-c3ccc(C)cc3)nn2)cc1)CCC=C(C)C,37.2,–
C=C[C@@](C)(/C=C/c1ccc(OC(=O)c2cn(-c3ccc(Cl)cc3)nn2)cc1)CCC=C(C)C,115,–
C=C[C@@](C)(/C=C/c1ccc(OCc2cn(Cc3ccc(Cl)cc3)nn2)cc1)CCC=C(C)C,327,–
C=C[C@@](C)(/C=C/c1ccc(OCC(=O)Nc2ccccc2)cc1)CCC=C(C)C,63.3,–
C=C[C@@](C)(/C=C/c1ccc(OC(=O)c2cc3cc(OC)ccc3[nH]2)cc1)CCC=C(C)C,329,–
C=C[C@@](C)(/C=C/c1ccc(OC(=O)c2cn(-c3ccc(F)cc3)nn2)cc1)CCC=C(C)C,79.9,–
C=C[C@@](C)(/C=C/c1ccc(OCC(=O)Nc2ccc(F)cc2)cc1)CCC=C(C)C,59.1,–
C=C[C@@](C)(/C=C/c1ccc(OCc2cn(-c3ccc(C)cc3)nn2)cc1)CCC=C(C)C,86.9,–
C=C[C@@](C)(/C=C/c1ccc(OCC(=O)NC(c2ccc(C)cc2)P(=O)(OCC)OCC)cc1)CCC=C(C)C (stereo not given in full),209,–
C=C[C@@](C)(/C=C/c1ccc(OCc2cn(Cc3ccc(C)cc3)nn2)cc1)CCC=C(C)C,371,–

Compound,IC50 at 24 h [1] [µM],further results
C=C[C@@](C)(/C=C/c1ccc(OC(=O)c2ccc3ncccc3c2)cc1)CCC=C(C)C,88,–
C=C[C@@](C)(/C=C/c1ccc(OC(=O)c2cc3cc(Cl)ccc3[nH]2)cc1)CCC=C(C)C,110,–
C=C[C@@](C)(/C=C/c1ccc(OCc2cn(-c3ccc(C(F)(F)F)cc3)nn2)cc1)CCC=C(C)C,82.1,–
C=C[C@@](C)(/C=C/c1ccc(OCC(=O)NC(c2ccc(F)cc2)P(=O)(OCC)OCC)cc1)CCC=C(C)C (stereo not given in full),110,–
C=C[C@@](C)(/C=C/c1ccc(OCC(=O)NC(c2ccccc2)P(=O)(OCC)OCC)cc1)CCC=C(C)C (stereo not given in full),33.4,–
C=C[C@@](C)(/C=C/c1ccc(OC(=O)c2cc3ccccc3[nH]2)cc1)CCC=C(C)C,108,–
C=C[C@@](C)(/C=C/c1ccc(OCc2cn(-c3ccc(OC)cc3)nn2)cc1)CCC=C(C)C,47.4,–
C=C[C@@](C)(/C=C/c1ccc(OCc2cn(Cc3ccc(OC)cc3)nn2)cc1)CCC=C(C)C,273,–
C=C[C@@](C)(/C=C/c1ccc(OCc2cn(-c3ccccc3)nn2)cc1)CCC=C(C)C,172,–
C=C[C@@](C)(/C=C/c1ccc(OCc2cn(Cc3ccccc3)nn2)cc1)CCC=C(C)C,480,–
C=C[C@@](C)(/C=C/c1ccc(OCC(=O)N2CCCC2)cc1)CCC=C(C)C,40.5,Activity (RAW264.7 [2]): Active; inhibition (RAW264.7 [3]): Active; inhibition (RAW264.7 [4]): Dose-Dependent Effect; inhibition (RAW264.7 [5]): Active; Activity (RAW264.7 [6]): Active; inhibition (RAW264.7 [7]): Dose-Dependent Effect; inhibition (Danio rerio [8]): Dose-Dependent Effect; inhibition (RAW264.7 [9]): Active; Activity (RAW264.7 [10]): Active; Activity (RAW264.7 [11]): Dose-Dependent Effect; inhibition (RAW264.7 [12]): Active; inhibition (RAW264.7 [13]): Dose-Dependent Effect; inhibition (RAW264.7 [14]): Dose-Dependent Effect; inhibition (RAW264.7 [15]): Dose-Dependent Effect; Activity (RAW264.7 [16]): Dose-Dependent Effect; inhibition (RAW264.7 [17]): Active; inhibition (RAW264.7 [18]): Active; inhibition (RAW264.7 [19]): Active; inhibition (Danio rerio [20]): Dose-Dependent Effect
C=C[C@@](C)(/C=C/c1ccc(OC(=O)c2cn(-c3ccc(OC)cc3)nn2)cc1)CCC=C(C)C,64.7,–
C=C[C@@](C)(/C=C/c1ccc(OCC(=O)Nc2cccc3cccnc23)cc1)CCC=C(C)C,649,–
C=C[C@@](C)(/C=C/c1ccc(OC(=O)/C=C/c2ccccc2)cc1)CCC=C(C)C,157,–
C=C[C@@](C)(/C=C/c1ccc(OCC(=O)N2CCCCC2)cc1)CCC=C(C)C,58.6,–
